Results on 6 molecules are retold here after article PMC9025851, “Polyphenolic Compounds from Lespedeza bicolor Protect Neuronal Cells from Oxidative Stress” (Antioxidants, 2022).

Read-outs that look alike come from different tables or passages of the source.

One data set can be described thus: Cytotoxicity, MTT assay. In kind it is cell-based, murine. As to conditions: mouse, Neuro-2a neuroblastoma cells, read-out: Cytotoxic activity EC50. On the procedure: The murine neuroblastoma cell line Neuro-2a (CCL-131) was purchased from American Type Culture Collection (ATCC®) (Manassas, VA, USA). Cells were cultured in Dulbecco’s Modified Eagle Medium (Biolot, St. Petersburg, Russia). The medium contained 10% fetal bovine serum (Biolot, St. Petersburg, Russia) and 1% penicillin/streptomycin (Biolot, St. Petersburg, Russia). Cells were incubated at 37 °C in a humidified atmosphere containing 5% (v/v) CO2.
Stock solutions of polyphenolic compounds were prepared in DMSO at a concentration of 10 mM. […]
We incubated Neuro-2a cells (1 × 10^4 cells/well) at 37 °C in a CO2 incubator for 24 h until they formed an adherent monolayer. Then, 20 μL of the tested solution was loaded onto the cells and incubated for 24 h. After incubation, the medium containing the polyphenolic test compounds was replaced by 100 μL of fresh medium. Then, we added 10 μL of MTT (3-(4,5-dimethylthiazol-2-yl)-2,5-diphenyltetrazolium bromide) (Sigma-Aldrich, St. Louis, MO, USA) stock solution (5 mg/mL) to each well and incubated the microplate for 4 h. Then, 100 μL of SDS-HCl solution (1 g SDS/10 mL dH2O/17 μL 6 M HCl) was added to each well, followed by incubation for 18 h. We measured the absorbance of the converted dye formazan on a Multiskan FC microplate photometer (Thermo Scientific, Waltham, MA, USA) at a wavelength of 570 nm. We performed all experiments in triplicate and expressed the cytotoxic activity as percent of living cells.

The subject of data set [1] is PQ-treated Neuro-2a cells. Nature of the data set: PQ-induced neurotoxicity, cell viability (MTT). In kind it is cell-based, murine. To be noted: PQ 1 mM; for Effect on percentage of living cells after treatment with PQ: compounds 0.01–10 μM, 1 h pre-treatment, MTT after 24 h. The procedure:
(§1) After 24 h of adhesion, Neuro-2a cells (1 × 10^4 cells/well) were treated with polyphenolic compounds at concentrations of 0.01–10 μM for 1 h. Subsequently, 1 mM of PQ, 10 μM rotenone or 80 μM of 6-OHDA (Sigma-Aldrich, St. Louis, MO, USA) were added. We used MTT assay to determine the percentage of living cells (cell viability) after 24 h of incubation. Cells incubated without inductors or with inductors were used as positive and negative control, respectively. The results are presented as percentages of the positive control value.

Data set [2] relates to PQ-treated Neuro-2a cells. The data set is described as follows: Mitochondrial membrane potential (TMRM) in PQ-treated cells. The class given is cell-based, murine. To be noted: compound 10 µM; PQ-treated Neuro-2a, TMRM. On the procedure:
The cells were incubated for 1 h in a 96-well plate (1 × 10^4 cells/well) with polyphenolic compounds (1 and 10 µM). Then, PQ (500 µM) was added, and the cell suspension was incubated for 1 h. Cells incubated without PQ and compounds were used as positive control, and cells with PQ alone were used as negative control. We added the tetramethylrhodamine methyl (TMRM) (Sigma-Aldrich, St. Louis, MO, USA) solution (500 nM) to each well, and incubated cells for 30 min at 37 °C. After the incubation, we measured the intensity of fluorescence with a PHERAstar FSplate reader (BMG Labtech, Ortenberg, Germany) at λex = 540 nm and λem = 590 nm. We processed the data using MARS Data Analysis v3.01R2 (BMG Labtech, Ortenberg, Germany) and presented results as percentages of the positive control value.

Data set [3] relates to 6-OHDA-treated Neuro-2a cells. The data set is described as follows: 6-OHDA-induced neurotoxicity, cell viability (MTT). The class given is cell-based, murine. As to conditions: 6-OHDA 80 µM, p < 0.05. On the procedure: as §1
Data set [4] deals with 6-OHDA-treated Neuro-2a cells. The data set is described as follows: ROS level in 6-OHDA-treated cells (H2DCF-DA). In kind it is cell-based, murine. As to conditions: 6-OHDA 80 µM; for Effect on ROS levels in 6-OHDA-treated cells: 1 h, H2DCF-DA. The procedure:
(§2) After 24 h of adhesion, Neuro-2a cells (1 × 10^4 cells/well) were incubated with compounds (0.01–10 µM) for 1 h. Then, we added rotenone (10 μM), 6-OHDA (80 μM), or PQ (1 mM) to each well and incubated cells for 1 h, 1 h, or 3 h, respectively. To evaluate the level of intracellular ROS, we added 20 µL of 2,7-dichlorodihydrofluorescein diacetate solution ([…], H2DCF-DA, Molecular Probes, Eugene, OR, USA) to each well, so that the final concentration was 10 µM, and incubated the microplate at 37 °C for an additional 30 min. Quercetin was used as a reference compound.

On the set-up of data set [5]: method as in PMID 31004693. To be noted: 30 min; mean ± SEM, n = 3; previously published; read-out: DPPH-Scavenging Effect SC50; cited from earlier work. Background: The DPPH test is a chemical assay of radical scavenging.
On the set-up of data set [6]: method as in PMID 31004693. As to conditions: mean ± SEM, n = 3; previously published; cited from earlier work.
Data set [7] has as its system human triple-negative breast cancer HTB-19. Set-up: method as in PMID 32087226. To be noted: cited from earlier work.
Data set [8] has as its system esophageal squamous cell carcinoma Kyse-30. On the set-up: method as in PMID 32087226. To be noted: cited from earlier work.
Data set [9] has as its system hepatocellular carcinoma HEPG-2. Set-up: method as in PMID 32087226. To be noted: cited from earlier work.
Data set [10] concerns retina pigmented epithelium cells RPE-1. On the set-up: method as in PMID 32087226. As to conditions: RPE-1 normal cell line; cited from earlier work.
The test system of data set [11] is human embryonic kidney cells HEK-293. Set-up: method as in PMID 32087226. As to conditions: HEK-293 normal cell line; cited from earlier work.
A short description of data set [12]: DPPH radical-scavenging effect. As to conditions: 30 min; DPPH• 10^−4 M in MeOH; mean ± SEM, n = 3; read-out: DPPH-Scavenging Effect SC50. On the procedure: The 2,2-diphenyl-1-picrylhydrazyl (DPPH^•) radical-scavenging effect of polyphenolic compounds 7–11 was determined as described in [24]. Polyphenolic compounds 7, 8, 9, 10, and 11 were added to DPPH^• solution in MeOH (10^−4 M) at concentrations from 6 to 34 µM. The reacting mixture was kept in the dark for 30 min at room temperature. Then, we measured the absorbance at 517 nm using a Shimadzu UV 1240 spectrophotometer (Shimadzu, Kyoto, Japan). Equation (1) was used to calculate the DPPH^• radical-scavenging effect (%):(1) DPPH^• scavenging effect,%=A0−Ax/A0 where A0 is the absorbance of DPPH^• solution of a blank sample (without polyphenolic compounds); AX is the absorbance of DPPH^• solution in the presence of different concentrations of polyphenolic compounds.
Quercetin was used as a reference compound. All experiments were performed in triplicate. We calculated the half-maximal scavenging concentration (SC50) for polyphenolic compounds by plotting the DPPH^• scavenging effect (%) against the concentrations of polyphenolic compounds. SC50 values are given as the mean value ± SEM.

Data set [13] concerns rotenone-treated Neuro-2a cells. The data set is described as follows: Rotenone-induced neurotoxicity, cell viability (MTT). The class given is cell-based, murine. As to conditions: for Increase in percentage of living cells after treatment with rotenone compared to rotenone-treated cells: rotenone 10 µM, MTT, p < 0.05. On the procedure:
as §1

The test system is the same in data set [14]. The data set is described as follows: ROS level in rotenone-treated cells (H2DCF-DA). In kind it is cell-based, murine. To be noted: rotenone 10 µM, 1 h. The procedure:
as §2

Data set [15] can be described thus: Ferric reducing antioxidant power (FRAP) assay. As to conditions: 4 min, absorbance 595 nm; mean ± SEM, n = 3. The procedure: We performed the FRAP assay as described in [29]. We prepared the FRAP reagent by mixing 2.5 mL of TPTZ (2,4,6-tris(2-pyridyl)-s-triazine) solution (10 mM) in 40 mM HCl and 25 mL of FeCl3 solution (20 mM) in acetate buffer solution (300 mM, pH 3.6). Polyphenolics 7–11 were added to 3 mL of FRAP reagent at concentrations from 6 to 34 µM. The mixture was kept in the dark at room temperature for 4 min. Then, we measured the absorbance at 595 nm using a Shimadzu UV 1240 spectrophotometer. Equation (2) was used to calculate the FRAP values for polyphenolic compounds 7–11:(2) FRAP=CFe/Cx where CFe is the concentration of Fe^2+ (µM) formed in the reaction; CX is the concentration of polyphenolic compounds in the reacting mixture.
The concentration of Fe^2+ (µM) formed in the reaction was determined using the calibration curve obtained for different concentrations of FeSO4·7H2O.

Another data set deals with 6-OHDA-exposed worms. Set-up: method as in PMID 32585871. As to conditions: cited from earlier work.
Another data set has as its system α-synuclein. On the set-up: method as in PMID 32585871. To be noted: cited from earlier work.
Another data set concerns MAO-B. Set-up: method as in PMID 27575476, PMID 32087226. To be noted: cited from earlier work.
The next data set deals with MAO-A. Set-up: method as in PMID 27575476, PMID 32087226. To be noted: cited from earlier work.
The next data set has as its system RAW 264.7 macrophages. Set-up: method as in PMID 25592708. As to conditions: cited from earlier work.
A further data set has as its system 5-lipoxygenase. Set-up: method as in PMID 28506902. To be noted: cited from earlier work.

On to `CC(C)=CCC[C@]1(C)C=Cc2c(c(O)cc3c2O[C@H]2c4ccc(O)cc4OC[C@@H]32)O1` [Compound 3, 6aR,11aR,3′R-6a,11a-dihydrolespedezol A3], for which the EC50 at 24 h in the data set “Cytotoxicity, MTT assay” is 44 µM. The “Effect on percentage of living cells after treatment with PQ” value in [1] is “significantly increased”. Further, in data set [1] (compound 10 μM, MTT), the “Increase in percentage of living cells after treatment with PQ” value was 8%. For the same molecule, the “Increase in mitochondrial membrane potential” value in data set [2] turned out to be 16%. Also, the “Increase in percentage of living cells after 6-OHDA treatment versus 6-OHDA-treated cells” value in data set [3] is recorded as 12.9%. Moreover, in data set [4], the “Decrease of ROS level compared to 6-OHDA-treated cells” value amounted to 4.5 times and the “Effect on ROS levels in 6-OHDA-treated cells” value is “significantly decreased”. Also, the EC50 in [5] was 23.7 ± 2.1 µM. Also, in [6], the FRAP is listed as 1.60 ± 0.08 mol (Fe^2+)/mol (polyphenolic compound X).

For the molecule `CC(C)=CCC/C(C)=C/Cc1c(O)c(O)cc2c3c(oc12)-c1ccc(O)cc1OC3` [Compound 4, lespedezol A2], in “Cytotoxicity, MTT assay”, the EC50 at 24 h was determined as 76 µM. Besides, the “Effect on percentage of living cells after treatment with PQ” value in data set [1] is “did not exhibit any effect”. For the same molecule, in data set [3], the “Increase in percentage of living cells after 6-OHDA treatment versus 6-OHDA-treated cells” value is 7.0%. Besides, the “Effect on ROS levels in 6-OHDA-treated cells” value in data set [4] is “significantly decreased”. Further, the EC50 in data set [5] is 18 ± 0.2 µM. Moreover, the FRAP in data set [6] is given as 2.78 ± 0.18 mol (Fe^2+)/mol (polyphenolic compound X). The Cytotoxicity result in [7], in data set [8], in [9], in [10] and in data set [11] was “rather cytotoxic” throughout.

For `CC(C)=CCC[C@@]1(C)C=Cc2c(c(O)cc3c4c(oc23)-c2ccc(O)cc2OC4)O1` [Compound 9, lespedezol A3], in [12], the EC50 stood at 13.5 ± 1.2 µM. In addition, in “Cytotoxicity, MTT assay”, the EC50 at 24 h was 75 µM. Further, the “Increase in percentage of living cells after 6-OHDA treatment versus 6-OHDA-treated cells” value in data set [3] was 31.4%. Further, the “Effect on ROS levels in 6-OHDA-treated cells” value in [4] is “significantly decreased”. Besides, in data set [13], the “Increase in percentage of living cells after treatment with rotenone compared to rotenone-treated cells” value was determined as 10.4%. Moreover, the “Effect on ROS levels in rotenone-treated cells” value in data set [14] was “did not significantly decrease”.

For `CC(C)=CCC[C@@]1(C)C=Cc2c(c(O)cc3c2oc2c4ccc(O)cc4oc(=O)c32)O1` [Compound 10, lespebicoumestan A], the EC50 in [12] was 22.7 ± 3.5 µM. Also, the FRAP in data set [15] is on record as 1.75 ± 0.20 mol (Fe^2+)/mol (polyphenolic compound X). In addition, the EC50 at 24 h in “Cytotoxicity, MTT assay” was found to be 44 µM. For the same molecule, the “Increase in percentage of living cells after 6-OHDA treatment versus 6-OHDA-treated cells” value in data set [3] worked out at 10.9%. Besides, in data set [4], the “Effect on ROS levels in 6-OHDA-treated cells” value is listed as “significantly decreased”. Further, the “Increase in percentage of living cells after treatment with rotenone compared to rotenone-treated cells” value in [13] turned out to be 13.2%. In data set [14], the “Effect on ROS levels in rotenone-treated cells” value is listed as “did not significantly decrease”.

For the molecule `Oc1ccc2c(c1)OC[C@H]1c3cc4c(cc3O[C@@H]21)OCO4` [maackiain], the Dopaminergic neuron damage entry in the data set on 6-OHDA-exposed worms is recorded as “significantly reduce”. In the data set with α-synuclein, the “Accumulation of α-synuclein” value is given as “diminish”. Also, in the data set with MAO-B, the “Inhibition of MAO-B” value was “selectively inhibited”. For the same molecule, the “Inhibition of MAO-A” value with MAO-A was “did not effectively inhibit”. Besides, the “LPS-induced nitric oxide production” value with RAW 264.7 macrophages is given as “inhibitory effects”. Moreover, the “Inhibition of 5-lipoxygenase” value with 5-lipoxygenase is reported as “inhibited”.

As for `C=C(C)[C@H]1Cc2c(ccc3c2O[C@@H]2COc4cc(OC)c(OC)cc4[C@@H]2C3=O)O1` [rotenone, reference compound], in [13] (rotenone 10 µM alone), the “Percentage of living Neuro-2a cells compared to the control” value stood at 68%.
